Data: PubChem BioAssay (NCI)
“And” between values parts separate entries of the source, which are not always exact repeats. Identical values can stand only once.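 Values below derive from 48-hour exposures of cells grown in 96-well plates, with endpoints linearly interpolated between the two concentrations bracketing the appropriate inhibition level. GI50 marks 50% less growth. TGI is the concentration that stops growth completely.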

Tested on: P388 leukemia
Assay: NCI tumour cell line growth inhibition, 48 h

For `CC(C)CCCCCCCCCCCCC(=O)NCC(=O)NC1C(O)C(O)C(Nc2ncnc3nc[nH]c23)OC1C(O)CO` (configuration not stated), the GI50 was 5 nM and the TGI was 6.16 nM and 5.07 nM.
